Measured values from patent publication US8653285B2 (Nippon Zoki Pharmaceutical Co., Ltd., priority 2008, dated 2014).
Counter-ions that a name gives are not always drawn. Like-named read-outs stand apart in the source and are kept apart here.

Experiments:
[1] = biological target: human histamine H1 receptor (Homo sapiens, UniProt P35367); test: In vitro human histamine H1 receptor binding experiment ([3H]pyrilamine, HEK293A cells stably expressing the receptor); details: [3H]pyrilamine 3 nmol/L, room temperature 60 minutes
Procedure: Recombinant human histamine H1 receptor plasmid (prepared by Invitrogen) was transfected to HEK293A cells with Lipofectamine 2000 (Invitrogen). Cells stably expressing human histamine H1 receptor were screened with Geneticin (Invitrogen). The cells were continued to be cultured using a Dulbecco's Modified Eagle Medium containing 10% fetal bovine serum, 0.1 mmol/L MEM Non-Essential Amino Acids Solution, 2 mmol/L L-glutamine and 0.7 mg/mL Geneticin in a 5% CO2 incubator at 37° C. The cells stably expressing human histamine H1 receptor were prepared using 50 mmol/L Tris-HCl (pH 7.5) (hereinafter referred to as buffer) containing 0.1% bovine serum albumin, so as to have a concentration of 3×10^6 cells/mL, to give a cell sample preparation. Fifty microliters of the buffer, 50 μL of a test substance solution at various concentrations, and 50 μL of [^3H]pyrilamine solution (final concentration: 3 nmol/L) were added to each of the wells on the 96-well plate, and stirred, and 100 μL of the cell sample preparation was then added thereto (at a concentration of 3×10^5 cells/well) to initiate the reaction.
The cells were incubated at room temperature for 60 minutes, and then filtered on UniFilter GF/C plate (Packard) immersed in 0.5% polyethyleneimine using a cell harvester (IH-110, INNOTECH CORPORATION), to stop the reaction, and the plate was washed with the buffer. The plate after washing was sufficiently dried, and 20 μL of a scintillator (MaxiLight, manufactured by Hidex) was added thereto, and count per minute (cpm) was measured with a multi-labeled microplate reader (Plate Chameleo II, Hidex). The nonspecific binding was cpm in a case where 30 μmol/L pyrilamine was added. The experiments were carried out at n=3, and at least repeated 3 times.

[2] = tested on: histamine-induced vascular hyperpermeability; test: Rat histamine-induced vascular hyperpermeability reaction (in vivo antihistamine action); details: SD male rat, oral administration, histamine injected intracutaneously 1 hour after administration, leaked Evans Blue
Procedure: An SD male rat (SPF) of 180 g in weight was previously fed for one week or more by allowing the rat to take a solid feed and tap water ad libitum, under the environment setting of a temperature of 22° C., humidity of 55% and an artificial illumination of 12 hours a day (light phase 8 am to 8 pm), and the rat was fasted overnight to be used for the experiment. Histamine.dihydrochloride (hereinafter referred to as histamine) and Evans Blue were used by dissolving each in physiological saline upon use. A substance to be tested was dissolved in water for injection or suspended in 0.5% carboxymethyl cellulose sodium, and the rat was orally administered with the solution or suspension (dose volume: 5 mL/kg body weight). After 1 hour from the administration, the physiological saline and the histamine solution were each intracutaneously injected to two locations (20 μg/0.05 ml/location) each on a back part of the rat of which hair was sheared with an electric clipper while anesthetizing with an ether. A 0.5% Evans Blue-containing physiological saline was injected into the tail vein of the rat (1 mL/200 g body weight) immediately before the intracutaneous injection of the histamine.
After 30 minutes, the animal was decapitated, and exsanguinated, and the skin was removed to measure an amount of leaked pigment in the blue-stained portion. The measurement of the amount of leaked pigment was carried out as follows. Skins of the pigment leaking site were cut out at two locations, 1 mL of a 2 mol/L aqueous potassium hydroxide solution was added thereto in a test tube, and the test tube was allowed to stand overnight at 37° C. to dissolve. Thereafter, 6 mL of a 1:3 mixed solution of 0.67 mol/L phosphoric acid and acetone was added to the solution, and the mixture was vigorously shaken for 10 minutes. Thereafter, the mixture was filtered, and the absorbance of the filtrate at 620 nm was measured. The absorbance obtained from the two locations of the sites injected with physiological saline, as blank value, was used for a compensation. The amount of leaked pigment was calculated from the calibration curve of Evans Blue at 620 nm.

[3] = biological target: T1, cerebral H1 receptor (Mus musculus, UniProt P70174); test: Murine cerebral H1 receptor occupying content (ex vivo, 3H-pyrilamine binding in brain homogenate after oral administration)
T1 construct: The excised brain tissue was homogenized with Polytron (Kinematica); from tissue; host or cells: ICR mouse brain (entire brain except cerebellum and medulla oblongata), homogenate
Procedure: A 6-week-old ICR male mouse was previously fed for one week or more by allowing the mouse to take a solid feed and tap water ad libitum, under the environment setting of a temperature of 22° C., humidity of 55% and an artificial illumination of 12 hours a day, and the mouse was fasted overnight to be used for the experiment. A substance to be tested was dissolved with water for injection or suspended in 0.5% carboxymethyl cellulose solution, and the solution or suspension was orally administered to the mouse (dose volume: 0.1 mL/10 g body weight). After 1 hour from the oral administration, the mouse was decapitated, and the entire brain, except for cerebellum and medulla oblongatae, was rapidly excised. The excised brain tissue was homogenized with Polytron (Kinematica) in an ice-cooled 50 mmol/L phosphate buffered saline (pH 7.4, 100 mg/1.9 mL).
To a test tube for reaction (TPX-Tube) were added 180 μL of the brain homogenate, and 10 μL of ^3H-pyrilamine solution (final concentration: 2 nmol/L) and 10 μL of a non-labeled pyrilamine solution (final concentration: 200 μmol/L) or a 50 mmol/L phosphate buffered saline, and the mixture was incubated at room temperature for 45 minutes, and 2.0 mL of an ice-cooled, 50 mmol/L phosphate buffered saline was then added thereto to stop the reaction. The reaction mixture was filtered with a GF/B filter ([…]), and the filtrate was placed in a vial and dried overnight at 60 degrees. After drying, 10 mL of a scintillator (AL-1, toluene-based, DOJINDO LABORATORIES) was added to the product, and the disintegration per minute (dpm) was measured with a liquid scintillation counter (Packard, U.S.A., TRI-CARB 2700TR) (5 minutes/vial).

[4] = ICR male mouse, oral administration, brain excised after 1 hour, larger ID50 = lower brain transfer, read-out: ID50 (the source's name)

T1 sequence (P70174 whole entry): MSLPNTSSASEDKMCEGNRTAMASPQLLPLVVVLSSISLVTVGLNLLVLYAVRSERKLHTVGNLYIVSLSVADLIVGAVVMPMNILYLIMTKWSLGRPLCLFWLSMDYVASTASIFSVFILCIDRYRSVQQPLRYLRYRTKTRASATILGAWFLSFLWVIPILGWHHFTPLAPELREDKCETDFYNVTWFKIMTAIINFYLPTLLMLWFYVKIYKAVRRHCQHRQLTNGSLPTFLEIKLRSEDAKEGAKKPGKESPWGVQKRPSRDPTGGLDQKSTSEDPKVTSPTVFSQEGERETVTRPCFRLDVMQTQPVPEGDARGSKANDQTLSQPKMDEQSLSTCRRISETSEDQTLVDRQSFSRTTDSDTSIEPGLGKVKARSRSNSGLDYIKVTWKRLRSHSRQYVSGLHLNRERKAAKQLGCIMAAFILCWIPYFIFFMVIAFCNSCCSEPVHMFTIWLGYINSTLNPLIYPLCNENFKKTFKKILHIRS
human histamine H1 receptor, sequence (P35367 whole entry): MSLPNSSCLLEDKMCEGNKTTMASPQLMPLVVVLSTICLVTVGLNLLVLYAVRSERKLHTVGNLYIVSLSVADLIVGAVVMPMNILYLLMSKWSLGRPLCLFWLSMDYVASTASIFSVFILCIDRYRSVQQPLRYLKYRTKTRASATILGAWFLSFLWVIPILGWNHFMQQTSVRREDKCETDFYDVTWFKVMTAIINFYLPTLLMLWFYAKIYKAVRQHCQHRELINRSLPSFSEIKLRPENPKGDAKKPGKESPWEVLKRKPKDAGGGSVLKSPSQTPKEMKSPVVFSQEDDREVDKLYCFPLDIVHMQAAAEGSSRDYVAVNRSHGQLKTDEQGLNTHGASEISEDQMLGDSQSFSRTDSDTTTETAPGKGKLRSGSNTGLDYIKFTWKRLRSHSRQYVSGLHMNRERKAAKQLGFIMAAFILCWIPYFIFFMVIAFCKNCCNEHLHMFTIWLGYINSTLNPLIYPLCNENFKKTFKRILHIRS

| IC50 [1] [nM] | Compound | further results |
| --- | --- | --- |
| 99.8 | O=C(O)Cc1ccc2c(c1)/C(=C\CCNCc1ccccc1)c1sccc1CO2 [Compound 42, (E)-[4-(3-Benzylaminopropylidene)-4,10-dihydro-9-oxa-3-thiabenzo[f]azulen-6-yl]acetic acid] | – |
| 10.9 | O=C(O)Cc1ccc2c(c1)/C(=C\CCN1CCN(c3ccccc3)CC1)c1sccc1CO2 [Compound 54, (E)-{4-[3-(4-Phenylpiperadin-1-yl)propylidene]-4,10-dihydro-9-oxa-3-thiabenzo[f]azulen-6-yl}acetic acid] | – |
| 19.6 | O=C(O)Cc1ccc2c(c1)/C(=C/CCN1CCN(c3ccccc3)CC1)c1sccc1CO2 [Compound 55, (Z)-{4-[3-(4-Phenylpiperadin-1-yl)propylidene]-4,10-dihydro-9-oxa-3-thiabenzo[f]azulen-6-yl}acetic acid] | – |
| 29 | CN(C)CC/C=C1\c2cc(CCC(=O)O)ccc2OCc2sccc21 [Compound 56, (E)-3-[4-(3-Dimethylaminopropylidene)-4,10-dihydro-9-oxa-1-thiabenzo[f]azulen-6-yl]propionic acid hydrochloride] | – |
| 60.5 | O=C(O)Cc1ccc2c(c1)/C(=C\CCN1CCC(=O)CC1)c1sccc1CO2 [Compound 62, (E)-{4-[3-(4-Oxopiperidin-1-yl)propylidene]-4,10-dihydro-9-oxa-3-thiabenzo[f]azulen-6-yl}acetic acid] | – |
| 8.56 | CN(C)CC/C=C1\c2cc(CC(=O)O)ccc2CCc2ccsc21 [Compound 64, (E)-[4-(3-Dimethylaminopropylidene)-9,10-dihydro-4H-3-thiabenzo[f]azulen-6-yl]acetic acid] | – |
| 14 | CN(C)CC/C=C1/c2cc(CC(=O)O)ccc2CCc2ccsc21 [Compound 65, (Z)-[4-(3-Dimethylaminopropylidene)-9,10-dihydro-4H-3-thiabenzo[f]azulen-6-yl]acetic acid hydrochloride] | – |
| 31.2 | O=C(O)Cc1ccc2c(c1)/C(=C\CCN1CCC(N3CCCCC3)CC1)c1sccc1CO2 [Compound 66, (E)-{4-[3-([1,4′]Bipiperidin-1′-yl)propylidene]-4,10-dihydro-9-oxa-3-thiabenzo[f]azulen-6-yl}acetic acid diformate] | – |
| 45.2 | O=C(O)Cc1ccc2c(c1)C(=CCCN1CCSCC1)c1sccc1CO2 [Compound 68, (E,Z)-{4-[3-(Thiomorpholin-4-yl)propylidene]-4,10-dihydro-9-oxa-3-thiabenzo[f]azulen-6-yl}acetic acid] | – |
| 53.8 | CC(C)(C(=O)O)c1cc2c(s1)CCc1ccccc1/C2=C\CCN1CCCC1 [Compound 69, (E,Z)-2-Methyl-2-{4-[3-(pyrrolidin-1-yl)propylidene]-9,10-dihydro-4H-1-thiabenzo[f]azulen-2-yl}propionic acid] | – |

Further lines, the compound ahead of its results:

| Compound | IC50 [1] [nM] | further results |
| --- | --- | --- |
| CCOC(=O)c1ccc2c(c1)C(=CCCN(C)C)c1sccc1CO2 [Compound 3, Ethyl (E,Z)-4-(3-dimethylaminopropylidene)-4,10-dihydro-9-oxa-3-thiabenzo[f]azulene-6-carboxylate hydrochloride] | 22.2 | – |
| CN(C)CCC=C1c2ccccc2CCc2sc(C(=O)NCCO)cc21 [Compound 9, (E,Z)-4-(3-Dimethylaminopropylidene)-9,10-dihydro-4H-1-thiabenzo[f]azulene-2-carboxylic-(2-hydroxyethyl)amide hydrochloride] | 55.7 | – |
| CCOC(=O)/C=C/c1ccc2c(c1)/C(=C/CCN(C)C)c1sccc1CO2 [Compound 13, Ethyl (E,Z)-3-[4-(3-dimethylaminopropylidene)-4,10-dihydro-9-oxa-3-thiabenzo[f]azulen-6-yl]acrylate hydrochloride] | 32.4 | – |
| CN(C)CC/C=C1/c2ccccc2CCc2sc(C(=O)O)cc21 [Compound 16, (Z)-[4-(3-Dimethylaminopropylidene)-9,10-dihydro-4H-1-thiabenzo[f]azulen-2-yl]carboxylic acid] | – | ED50 ([2]; read-out: ED50): 0.299 mg/kg; ED50 [3, 4]: 45.8 mg/kg |
| CN(C)CC/C=C1/c2ccccc2CCc2sc(CC(=O)O)cc21.Cl [Compound 18, (Z)-[4-(3-Dimethylaminopropylidene)-9,10-dihydro-4H-1-thiabenzo[f]azulen-2-yl]acetic acid hydrochloride] | – | ED50 ([2]; read-out: ED50): 0.063 mg/kg; ED50 ([3]; mouse, po, 1 h, read-out: ID50): 2.1 mg/kg |
| CN(C)CC/C=C1/c2cc(CC(=O)O)ccc2OCc2ccsc21 [Compound 20, (Z)-[4-(3-Dimethylaminopropylidene)-4,10-dihydro-9-oxa-3-thiabenzo[f]azulen-6-yl]acetic acid] | – | ED50 ([2]; read-out: ED50): 0.45 mg/kg; ED50 [3, 4]: 109 mg/kg |
| CCOC(=O)C(C)(C)c1ccc2c(c1)C(=CCCN(C)C)c1sccc1CO2 [Compound 21, Ethyl (E,Z)-2-[4-(3-dimethylaminopropylidene)-4,10-dihydro-9-oxa-3-thiabenzo[f]azulen-6-yl]-2-methylpropionate hydrochloride] | 74.7 | – |
| CN(C)CCC=C1c2ccccc2CCc2sc(C(C)(C)C(=O)O)cc21 [Compound 23, (E,Z)-2-[4-(3-Dimethylaminopropylidene)-9,10-dihydro-4H-1-thiabenzo[f]azulen-2-yl]-2-methylpropionic acid] | 74.6 | – |
| CNCC/C=C1\c2cc(C(C)(C)C(=O)O)ccc2OCc2ccsc21 [Compound 25, (E)-{2-Methyl-2-[4-(3-methylaminopropylidene)-4,10-dihydro-9-oxa-3-thiabenzo [f]azulen-6-yl]}propionic acid] | – | ED50 [2]: 5.70 mg/kg; ID50 ([3]; ICR male mouse, oral administration, brain excised after 1 hour, larger ID50 = lower brain transfer): >200 mg/kg |
| O=C(O)Cc1ccc2c(c1)/C(=C/CCN1CCOCC1)c1sccc1CO2 [Compound 33, (Z)-{4-[3-(Morpholin-4-yl)propylidene]-4,10-dihydro-9-oxa-3-thiabenzo[f]azulen-6-yl}acetic acid] | – | ED50 ([2]; read-out: ED50): ~0.3 mg/kg; ED50 [3, 4]: 21.1 mg/kg |
| O=C(O)Cc1ccc2c(c1)/C(=C/CCN1CCCCC1)c1sccc1CO2 [Compound 35, (Z)-{4-[3-(Piperidin-1-yl)propylidene]-4,10-dihydro-9-oxa-3-thiabenzo[f]azulen-6-yl}acetic acid] | – | ED50 ([2]; read-out: ED50): ~0.1 mg/kg; ED50 [3, 4]: 65.7 mg/kg |
| CN(CC/C=C1\c2cc(CC(=O)O)ccc2OCc2ccsc21)Cc1ccccc1 [Compound 40] | 19.1 | – |
| CN1CCC(=C2c3ccccc3CC(=O)c3sccc32)CC1 [Ketotifen, reference compound] | – | ED50 ([2]; read-out: ED50): 0.54 mg/kg |
